In patent publication US6914045B2, “Glycopeptide antibiotics” (Wyeth Holdings Corporation, priority 2001, dated 2005):
Values after ≈ are worked out from the molar mass of the structure shown.

Tests used:
Assay in all cases: in vitro antibacterial evaluation, MIC by broth dilution
Format in all cases: cell-based
Streptococcus sp. = conditions: broth dilution, 18 hours at 35° C.; for MIC Streptococcus pneumoniae (ATCC 6301): strain ATCC 6301; for MIC Streptococcus pneumoniae (GC 1894): strain GC 1894; for MIC Streptococcus pyogenes (GC 4563): strain GC 4563; for MIC Streptococcus agalactiae (GC 4564): strain GC 4564; for MIC Streptococcus pneumoniae (GC 4565): strain GC 4565
Procedure, shortened: (§1)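 Broth dilution per NCCLS M7-A2 in Mueller-Hinton II medium, inoculum 5×10^5 CFU/mL, antibiotic range 64-0.06 μg/mL. MIC taken as lowest concentration inhibiting growth; Gram-positive panel includes recent clinical isolates resistant to methicillin, penicillin and/or vancomycin.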

Enterococcus sp. = conditions: broth dilution, 18 hours at 35° C.; for MIC Enterococcus faecalis (ATCC 29212): strain ATCC 29212; for MIC Enterococcus faecalis (GC 2242): strain GC 2242; for MIC Enterococcus faecium (GC 2243): strain GC 2243; for MIC Enterococcus faecalis (GC 2691): strain GC 2691; for MIC Enterococcus faecalis (GC 3059): strain GC 3059; for MIC Enterococcus faecalis (GC 4552): strain GC 4552; for MIC Enterococcus faecalis (GC 4553): strain GC 4553; for MIC Enterococcus faecalis (GC 4554): strain GC 4554; for MIC Enterococcus faecium (GC 4556): strain GC 4556; for MIC Enterococcus faecium (GC 4557): strain GC 4557; for MIC Enterococcus avium (GC 4558): strain GC 4558; for MIC Enterococcus faecalis (GC 6189): strain GC 6189
Procedure, shortened: as §1

Escherichia coli = system: Escherichia coli
Procedure, shortened: as §1

Staphylococcus sp. = conditions: broth dilution, 18 hours at 35° C.; for MIC Staphylococcus aureus (GC 1131): strain GC 1131
Procedure, shortened: as §1

MIC Streptococcus pneumoniae (ATCC 6301) (Streptococcus sp.; inoculum 5×10^5 CFU/mL): 0.12 µg/mL (≈ 0.0818 µM)
MIC Streptococcus pneumoniae (GC 1894) (Streptococcus sp.; inoculum 5×10^5 CFU/mL): <0.06 µg/mL
MIC Streptococcus pyogenes (GC 4563) (Streptococcus sp.; inoculum 5×10^5 CFU/mL): 0.12 µg/mL (≈ 0.0818 µM)
MIC Streptococcus agalactiae (GC 4564) (Streptococcus sp.; inoculum 5×10^5 CFU/mL): 1 µg/mL (≈ 0.681 µM)
MIC Streptococcus pneumoniae (GC 4565) (Streptococcus sp.; inoculum 5×10^5 CFU/mL): 0.12 µg/mL (≈ 0.0818 µM)
MIC Streptococcus pneumoniae (ATCC 6301) (Streptococcus sp.): 0.12 µg/mL (≈ 0.0818 µM)
MIC Streptococcus pneumoniae (GC 1894) (Streptococcus sp.): <0.06 µg/mL
MIC Streptococcus pyogenes (GC 4563) (Streptococcus sp.): 0.12 µg/mL (≈ 0.0818 µM)
MIC Streptococcus agalactiae (GC 4564) (Streptococcus sp.): 1 µg/mL (≈ 0.681 µM)
MIC Streptococcus pneumoniae (GC 4565) (Streptococcus sp.): 0.12 µg/mL (≈ 0.0818 µM)
MIC Enterococcus faecalis (ATCC 29212) (Enterococcus sp.; inoculum 5×10^5 CFU/mL): 16 µg/mL (≈ 10.9 µM)
MIC Enterococcus faecalis (GC 2242) (Enterococcus sp.; inoculum 5×10^5 CFU/mL): 16 µg/mL (≈ 10.9 µM)
MIC Enterococcus faecium (GC 2243) (Enterococcus sp.; inoculum 5×10^5 CFU/mL): 16 µg/mL (≈ 10.9 µM)
MIC Enterococcus faecalis (GC 2691) (Enterococcus sp.; inoculum 5×10^5 CFU/mL): 16 µg/mL (≈ 10.9 µM)
MIC Enterococcus faecalis (GC 3059) (Enterococcus sp.; inoculum 5×10^5 CFU/mL): 16 µg/mL (≈ 10.9 µM)
MIC Enterococcus faecalis (GC 4552) (Enterococcus sp.; inoculum 5×10^5 CFU/mL): 16 µg/mL (≈ 10.9 µM)
MIC Enterococcus faecalis (GC 4553) (Enterococcus sp.; inoculum 5×10^5 CFU/mL): 16 µg/mL (≈ 10.9 µM)
MIC Enterococcus faecalis (GC 4554) (Enterococcus sp.; inoculum 5×10^5 CFU/mL): 32 µg/mL (≈ 21.8 µM)
MIC Enterococcus faecium (GC 4556) (Enterococcus sp.; inoculum 5×10^5 CFU/mL): 16 µg/mL (≈ 10.9 µM)
MIC Enterococcus faecium (GC 4557) (Enterococcus sp.; inoculum 5×10^5 CFU/mL): 16 µg/mL (≈ 10.9 µM)
MIC Enterococcus avium (GC 4558) (Enterococcus sp.; inoculum 5×10^5 CFU/mL): 16 µg/mL (≈ 10.9 µM)
MIC Enterococcus faecalis (GC 6189) (Enterococcus sp.; inoculum 5×10^5 CFU/mL): 16 µg/mL (≈ 10.9 µM)
MIC Enterococcus faecalis (ATCC 29212) (Enterococcus sp.): 16 µg/mL (≈ 10.9 µM)
MIC Enterococcus faecalis (GC 2242) (Enterococcus sp.): 16 µg/mL (≈ 10.9 µM)
MIC Enterococcus faecium (GC 2243) (Enterococcus sp.): 16 µg/mL (≈ 10.9 µM)
MIC Enterococcus faecalis (GC 2691) (Enterococcus sp.): 16 µg/mL (≈ 10.9 µM)
MIC Enterococcus faecalis (GC 3059) (Enterococcus sp.): 16 µg/mL (≈ 10.9 µM)
MIC Enterococcus faecalis (GC 4552) (Enterococcus sp.): 16 µg/mL (≈ 10.9 µM)
MIC Enterococcus faecalis (GC 4553) (Enterococcus sp.): 16 µg/mL (≈ 10.9 µM)
MIC Enterococcus faecalis (GC 4554) (Enterococcus sp.): 32 µg/mL (≈ 21.8 µM)
MIC Enterococcus faecium (GC 4556) (Enterococcus sp.): 16 µg/mL (≈ 10.9 µM)
MIC Enterococcus faecium (GC 4557) (Enterococcus sp.): 16 µg/mL (≈ 10.9 µM)
MIC Enterococcus avium (GC 4558) (Enterococcus sp.): 16 µg/mL (≈ 10.9 µM)
MIC Enterococcus faecalis (GC 6189) (Enterococcus sp.): 16 µg/mL (≈ 10.9 µM)
MIC Escherichia coli (ATCC 25922) (Escherichia coli; strain ATCC 25922, 18 hours at 35° C.): >64 µg/mL
MIC Escherichia coli (GC 4559) (Escherichia coli; strain GC 4559, 18 hours at 35° C.): >64 µg/mL
MIC Escherichia coli (GC 4560) (Escherichia coli; strain GC 4560, 18 hours at 35° C.): 16 µg/mL (≈ 10.9 µM)
MIC Staphylococcus aureus (GC 1131) (Staphylococcus sp.; inoculum 5×10^5 CFU/mL): 16 µg/mL (≈ 10.9 µM)
MIC Staphylococcus aureus (ATCC 29213) (Staphylococcus sp.; strain ATCC 29213): 16 µg/mL (≈ 10.9 µM)
MIC Staphylococcus aureus (GC 1131) (Staphylococcus sp.): 16 µg/mL (≈ 10.9 µM)
MIC Staphylococcus aureus (GC 3051) (Staphylococcus sp.; strain GC 3051): 32 µg/mL (≈ 21.8 µM)
MIC Staphylococcus aureus (GC 3053) (Staphylococcus sp.; strain GC 3053): 16 µg/mL (≈ 10.9 µM)
MIC Staphylococcus aureus (GC 4541) (Staphylococcus sp.; strain GC 4541): 16 µg/mL (≈ 10.9 µM)
MIC Staphylococcus aureus (GC 4542) (Staphylococcus sp.; strain GC 4542): 16 µg/mL (≈ 10.9 µM)
MIC Staphylococcus aureus-SMITH (GC 4543) (Staphylococcus sp.; strain GC 4543): 16 µg/mL (≈ 10.9 µM)
MIC Staphylococcus aureus (GC 4544) (Staphylococcus sp.; strain GC 4544): 16 µg/mL (≈ 10.9 µM)
MIC Staphylococcus aureus (GC 4545) (Staphylococcus sp.; strain GC 4545): 16 µg/mL (≈ 10.9 µM)
MIC Coagulase Negative Staphylococcus (GC 4547) (Staphylococcus sp.; strain GC 4547): 16 µg/mL (≈ 10.9 µM)
MIC Coagulase Negative Staphylococcus (GC 4548) (Staphylococcus sp.; strain GC 4548): 8 µg/mL (≈ 5.45 µM)
MIC Coagulase Negative Staphylococcus (GC 4549) (Staphylococcus sp.; strain GC 4549): 8 µg/mL (≈ 5.45 µM)
MIC Coagulase Negative Staphylococcus (GC 4551) (Staphylococcus sp.; strain GC 4551): 16 µg/mL (≈ 10.9 µM)
MIC Coagulase Negative Staphylococcus (GC 6257) (Staphylococcus sp.; strain GC 6257): 8 µg/mL (≈ 5.45 µM)
MIC Staphylococcus aureus-SMITH (GC 4543) (Staphylococcus sp.; strain SMITH GC 4543): 16 µg/mL (≈ 10.9 µM)
SMILES: CC(C)=CCOc1cccc(C2OCC3OC(OC4C(CO)OC(Oc5ccc(CC6NC(=O)C(C(C)c7ccccc7)NC(=O)CNC(=O)C(CO)NC(=O)C(C(O)C7CNC(=N)N7C7OC(CO)C(O)C(O)C7O)NC(=O)C(C(O)C7CNC(=N)N7)NC6=O)cc5)C(O)C4O)C(O)C(O)C3O2)c1 (stereo not drawn) [Example 165]
MIC Staphylococcus haemolyticus (GC 4546) (Staphylococcus sp.; strain GC 4546): 16 µg/mL (≈ 10.9 µM)
